The conditions of series [1]: cited from earlier work.
A short description of series [2]: Selection of mixed solvent (Table 4). In kind it is physicochemical.
For series [3] the following is noted: in vivo, cited from earlier work.

The values below come from patent CN105663037A, “一种阿莫西林溶液剂及其制备方法和用途” (Chengdu Qiankun Veterinary Pharmaceutical Co Ltd, priority 2016, dated 2016).

The structures appear in SMILES notation.

In the case of `CC1(C)S[C@@H]2[C@H](NC(=O)[C@H](N)c3ccc(O)cc3)C(=O)N2[C@H]1C(=O)O` [阿莫西林], the “stability under acidic conditions” value in series [1] is given as “稳定”. Also, the “dissolution when amount of dimethyl sulfoxide is reduced” value in series [2] (25 g amoxicillin, less than 100 ml dimethyl sulfoxide) was “不能完全溶解”. Moreover, the “volume of dimethyl sulfoxide required to dissolve 25 g amoxicillin as stable solution” value in series [2] (from results of 2.2 and 2.3) came out at 100 mL. For the same compound, in series [3] (po), the gastrointestinal absorption rate is on record as 90%. The half-life in series [3] is about 1.02 h.

Usually half-life stands for the time needed for the level to fall by half in the phase considered.
